According to patent US7528168B2, “Inhibitors of the fatty acid oxidation for the prophylaxis and/or the treatment of chronic and/or atopic skin diseases” (priority 2002, dated 2009):

Legend:
[1] = tested on: transplanted human psoriasis skin; test: Psoriasis model, ULEX staining (keratinocyte differentiation); type: in vivo, BNX mice; conditions: 3 weeks, placebo 55±19%
Procedure: (§1) The psoriasis model described by Wrone-Smith and Nickoloff (1996) was used. 5 mm non-lesional skin biopsies from five psoriatic patients were each split in four pieces and transplanted on 20 immuno-deficient BNX mice, i.e. four groups of five mice each. Psoriasis was induced in all mice by injection with donors super-antigen-activated blood cells. After psoriasis had developed, mice were treated for 3 weeks by applying either placebo-cream, cream containing a corticosteroid (betamethasone), 1% Etomoxir or 30% Etomoxir daily on the skin. The cream containing 30% Etomoxir was removed after 30 minutes while the other creams were left on the skin.
(§2) After the treatment period, liver and blood of the mice were analyzed for their CPT1 activity and GOT/GPT levels. Furthermore, the epidermal thickness, in particular the depth of reti ridges, the number of Ki67 positive cells and the percentage of ULEX-positive cells (this marker stains the upper layers of the epidermis in normal skin and the whole epidermis in psoriatic skin) in the epidermis were determined.
(§3) Histological stainings are performed on cryo-preserved tissues. Diagonal cross sections (8μm) are cut (see FIG. 20), covering all skin-layers (located at the top layer are the stratum corneus and epidermis of the transplanted human biopsy and at the bottom the murine tissue is located, forming a base for the transplanted human skin).
Sections are stained with biotinylated Europaeus Agglutinin 1 and evaluated at a microscopic magnification of 200×. Two representative sections are evaluated. The thickness of both the ULEX positive cell-layer (distribution of ULEX) as well as the ULEX negative layer of the total section is measured using a microscopic ocular with intergraded graduation-lines (ruler). From this the average ratio of ULEX positive differentiation is calculated (indicated as percentage of epidermis positive for ULUX).

[2] = tested on: transplanted human psoriasis skin; test: Psoriasis model, hematoxyline staining (epidermal thickness); type: in vivo, BNX mice; conditions: 3 weeks, placebo 138±24 μm; for Epidermal thickness: three mice
Procedure: as §1, §2, §3
Sections are stained with hematoxyline and evaluated at a microscopic magnification of 200×. Two sections taken round the middle of the biopsy are evaluated. Thickness measurements are performed of the total section using a microscopic ocular with intergraded graduation-lines (ruler). From this, the average epidermal thickness measurements for ridges and the average of the total epidermis (mean of ridges and inter-ridges) are calculated in μm (taken into account magnification factor).

CPT1 [3] = target: T1, CPT1 (Mus musculus, UniProt P97742); test: CPT1 activity in liver of BNX mice after three weeks topical treatment; type: in vivo; conditions: 3 weeks, placebo set 100%
T1 construct: A small piece of frozen liver (appr. 200 mg) was homogenized in 600 μl of cold sucrose buffer; from tissue; host or cells: liver of BNX mice (mitochondrial enriched fraction)
T1 sequence (P97742 1-773): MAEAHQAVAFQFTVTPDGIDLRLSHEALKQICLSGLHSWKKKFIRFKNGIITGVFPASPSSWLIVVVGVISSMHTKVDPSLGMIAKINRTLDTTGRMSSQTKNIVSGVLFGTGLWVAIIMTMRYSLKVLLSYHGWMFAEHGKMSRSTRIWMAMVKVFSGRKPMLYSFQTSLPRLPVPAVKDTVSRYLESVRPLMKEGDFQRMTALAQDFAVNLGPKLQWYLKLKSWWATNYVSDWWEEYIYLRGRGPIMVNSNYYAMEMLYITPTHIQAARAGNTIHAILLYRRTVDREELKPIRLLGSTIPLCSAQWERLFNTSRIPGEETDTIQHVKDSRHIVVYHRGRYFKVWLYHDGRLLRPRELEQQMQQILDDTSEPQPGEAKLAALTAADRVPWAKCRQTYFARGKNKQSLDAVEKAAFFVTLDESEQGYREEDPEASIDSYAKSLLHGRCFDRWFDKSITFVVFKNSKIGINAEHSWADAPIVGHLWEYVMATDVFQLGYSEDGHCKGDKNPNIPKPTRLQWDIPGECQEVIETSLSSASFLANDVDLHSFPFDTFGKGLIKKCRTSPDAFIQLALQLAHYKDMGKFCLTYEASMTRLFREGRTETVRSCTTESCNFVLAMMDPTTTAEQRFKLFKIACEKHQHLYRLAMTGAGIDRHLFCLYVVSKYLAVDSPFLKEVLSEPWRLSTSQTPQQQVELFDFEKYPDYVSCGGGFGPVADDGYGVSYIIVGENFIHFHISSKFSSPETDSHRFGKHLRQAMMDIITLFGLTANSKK
Procedure: as §1, §2
(§4) A small piece of frozen liver (appr. 200 mg) was homogenized in 600 μl of cold sucrose buffer by 8-10 strokes with tight pestle of dounce homogenizer. Homogenate was centrifuged at 700×g for 10 min at 4° C. Supernatant was again centrifuged at 20000×g for 20 min at 4° C. Pellet was resuspended in 1400 μl buffer A and kept on ice for further analysis or stored at −80° C.
160 μl of bidestilled water was added to wells of a 96-well plate. For the standard curve 0 μg, 1 μg, 2 μg, 3 μg, 4 μg and 5 μg of BSA (BSA stock: 1 mg/ml from New England Biolabs) was added in duplicates to the first […]. 1 μl of the liver samples and the blood samples were added in duplicates to the wells. Finally 40 μl dye reagent concentrate (Bio-Rad protein assay) was added and mixed by pipetting up and down. After 5 to 30 min OD at 595 was measured versus reagent blank (0 μg BSA). For the calibration curve the OD was plotted against the concentration of BSA and total protein concentration of the liver samples was calculated in μg/μl.
20 μg of total protein of each liver sample and 300 μg of total protein of each plasma sample were added in 1.5 ml Eppendorf tubes (safe lock) and filled up to 100 μl with buffer A (all in duplicates). Background control was buffer A only. The tubes were preincubated for exactly 5 min at 30° C. prior to the addition of 105 μl of reaction mix. Again samples were incubated for exactly 5 min at 30° C. Reactions were stopped by adding 800 μl of 6% perchloric acid and stored on ice. […] Finally, either 100 μl (liver samples) or 150 μl (plasma samples) of the butanol phase were mixed with 1 ml Microscint0 in a 24 well-plate and cpm values were measured with the scintillation counter from Canberra Packard. […]

[4] = tested on: transplanted human psoriasis skin; test: Psoriasis model, Ki-67 staining (keratinocyte proliferation); type: in vivo, BNX mice; conditions: 3 weeks
Procedure: as §1, §2, §3
Sections are stained with mu-∝Hu monoclonal Ab and evaluated at a microscopic magnification of 400×. Two representative sections are evaluated. The total number of positive cells are counted of the total section and indicated per unit-length. A unit-length is a microscopic view (of a part of the section) at a magnification of 400× (see FIG. 20). Per section several unit-lengths are counted (minimum of 8). From this the average number of Ki-67 positive cells per unit-length is calculated.

CPT1 [5] = test: Inhibition of CPT1 activity by the salt of Etomoxir in vitro, pooled blood cell extract; type: biochemical, BNX mice
Procedure: 500 μl of total blood cells were frozen and drawn three tines to break up the cells. Samples were diluted by adding 500 μl buffer A and then centrifuged at 20000×g for 20 min at 4° C. Solid Pellets were resuspended in 200 μl buffer A and kept on ice for further analysis or stored at −80° C.
(§5) 2 μl of a 100× stock of Etomoxir-salt (0; 0.1; 1.0 and 10 mM) dissolved in DMSO were added in 1.5 ml Eppendorf tubes in duplicates. 2× activation mix was premixed on ice with either 15 μg of total protein of each liver sample or 300 μg of total protein of each plasma sample (final volume per reaction was 98 μl). 98 μl of this mix was added to each tube containing the 2 μl of inhibitor and tubes were left at 30° C. for exactly 30 min. Then 105 μl of reaction mix were added to start the CPT1 reaction. Again samples were incubated for exactly 5 min at 30° C. […] Finally, either 150 μl of the butanol phase were mixed with 1 ml Microscint0 in a 24 well-plate and cpm values were measured with the scintillation counter from Canberra Packard. P values were calculated with the t-test of the SigmaPlot 2001 software.
(§6) To determine the sensitivity of the CPT1 activity in response to Etomoxir, cell pellet samples were pooled and treated with increasing amounts of Etomoxir. […] 85% of the measured activity in the blood cells was Etomoxir insensitive and therefore the relevance of this assay is questionable.

CPT1 [6] = target: T1, CPT1; test: Inhibition of CPT1 activity by the salt of Etomoxir in vitro, mitochondrial enriched fractions of liver; type: biochemical, BNX mice
Procedure: as §4
as §5, with “min.” for “min. Then 105 μl of reaction mix were added to start the CPT1 reaction. Again samples were incubated for exactly 5 min at 30° C.”
as §6

CPT1 [7] = test: CPT1 activity in total blood cells of BNX mice after three weeks topical treatment; type: in vivo; conditions: 3 weeks
Procedure: as §1
as §2, with “determined. […]” for “determined.”
160 μl of bidestilled water was added to wells of a 96-well plate. […] After 5 to 30 min OD at 595 was measured versus reagent blank (0 μg BSA). For the calibration curve the OD was plotted against the concentration of BSA and total protein concentration of the liver samples was calculated in μg/μl. […]

[8] = Animal experiment, deaths during topical treatment; type: in vivo, BNX mice; conditions: 30% Etomoxir cream left on the skin; probably because they licked off the cream
Procedure: as §1, with “The cream containing 30% Etomoxir was removed after 30 minutes while the other creams were left on the skin.” left out

Row | CPT1 activity in liver compared to the placebo group (CPT1 [3]; corticosteroid (betamethasone) cream daily) [%] | Compound | Percentage of ULEX-positive cells in the epidermis ([1]; corticosteroid cream daily) [%] | Average epidermal thickness ([2]; corticosteroid cream daily) [μm] | Number of Ki67 positive cells ([4]; corticosteroid cream daily, placebo 55±37) | Percentage of ULEX-positive cells in the epidermis (differentiation rate) ([1]; 1% Etomoxir cream) [%] | Percentage of ULEX-positive cells in the epidermis (differentiation rate) ([1]; 30% Etomoxir cream) [%] | Epidermal thickness ([2]; 1% Etomoxir cream daily) [μm] | Epidermal thickness ([2]; 30% Etomoxir cream daily (removed after 30 minutes)) [μm] | Reduction of CPT1 activity in pooled blood cell pellet samples (CPT1 [5]; increasing amounts of Etomoxir (salt), activity without Etomoxir = 100%) [%] | Part of the measured CPT1 activity in blood cells that is Etomoxir insensitive (CPT1 [5]; pooled cell pellet samples) [%] | CPT1 activity in liver compared to the placebo group (CPT1 [3]; 1% Etomoxir cream daily) [%] | CPT1 activity in liver compared to the placebo group (CPT1 [3]; 30% Etomoxir cream daily, excluding liver of dead animals) [%] | CPT1 activity in liver compared to the placebo group (CPT1 [3]; 30% Etomoxir cream daily, including the two dead animals) [%] | Sensitivity of CPT1 activity measured in liver to Etomoxir (CPT1 [6]) | CPT1 activity in blood cell pellets versus placebo group (CPT1 [7]; 1% Etomoxir cream daily, p value 0.01) | CPT1 activity in blood cell pellets versus placebo group (CPT1 [7]; 30% Etomoxir cream daily, p value>0.05) | Number of Ki67 positive cells as compared to the placebo group ([4]; 1% Etomoxir cream) | Number of Ki67 positive cells as compared to the placebo group ([4]; 30% Etomoxir cream) | Deaths of animals [8]
1 | 83 | C[C@H]1C[C@H]2[C@@H]3CCC4=CC(=O)C=C[C@]4(C)[C@@]3(F)[C@@H](O)C[C@]2(C)[C@@]1(O)C(=O)CO [corticosteroid, betamethasone] | 24±7 | 81±9 | 10±6 positive cells/unit-length | – | – | – | – | – | – | – | – | – | – | – | – | – | – | –
2 | – | CCOC(=O)C1(CCCCCCOc2ccc(Cl)cc2)CO1 (stereo not shown) [Etomoxir, 2-(6-(4-chlorophenoxy)hexyl)oxirane-2-carboxylic acid ethyl ester] | – | – | – | 17±11 | 18±8 | 88±10 | 69±4 | ~15 | ~85 | 73 | 59 | 40 | highly Etomoxir sensitive | significantly higher | not significantly different | significant decrease | significant decrease | two out of five animals died
